Assay [1] deals with GT-1a pRLuc H771b 75 S/I subgenomic replicon cell line. Kind of assay: HCV GT-1a replicon luciferase reporter assay. The class given is cell-based. Particulars: Hepatitis C virus, GT1A, 72 h, read-out: GT-1a (IC50) (nM). The gist of the method: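 Huh-7-derived subgenomic replicon cells (GT-1b Con1 2209-23, 5000/well; GT-1a H77 chimera with Con1 NS3 first 75 aa, 3000/well) in 5% FBS DMEM; compounds added 24 h post-plating, 3-fold dilutions, 1% DMSO. Renilla luciferase read after 72 h; EC50 is 50% signal reduction versus untreated, non-linear fit.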

For assay [2], the system named is HCV GT1b replicon (2209-23 cell line, GT-1b Con1 subgenomic replicon in Huh-7). In words: HCV GT1b replicon luciferase reporter assay. The class given is cell-based. Particulars: Hepatitis C virus. An excerpt: Determination of compounds HCV GT1b inhibitory replicon activity using the replicon luciferase reporter assay
The 2209-23 cell line was developed at Roche by stable transfection of the hepatoma cell line Huh-7 with a GT-1b Con1 subgenomic bicistronic replicon as previously described. Subgenomic replicon cell line was established in cured Huh7 cells, obtained from R. Bartenschlager (J. Virol. 2003 March; 77 (5):3007-19) The GT-1a H77 subgenomic replicon vector pRLuc H771b 75 S/I, was created by replacing the non structural region of the GT-1b Con1 subgenomic replicon by the one of the H77 strain, except for the first 75 amino acids of the NS3 protein that are from GT-1b Con1 strain. (J. Virol. 2001 77:5352-59) The GT-1a pRLuc H771b 75 S/I subgenomic replicon cell line was established in cured Huh7 cells, obtained from R. Bartenschlager. (J. Virol. 2003 March; 77 (5):3007-19)
All the subgenomic replicon cell lines were cultured in Dulbecco's Modified Eagle Medium (DMEM-Glutamax™-I; Invitrogen Cat #10569-010). The medium was supplemented with 10% Fetal Bovine Serum (Invitrogen Cat #10082-147), 1% penicillin/streptomycin (Mediatech Cat #30-002-CI) and 500 μg/ml of G418 (Mediatech Cat #30-234-CI). Cells were maintained at 37° C. in a humidified 5% CO2 atmosphere.
2209-23 cells were plated at a cell density of 5000 cells per well in 96 well plates (Becton Dickinson, Cat #35 3296). Cells were plated in 90 μl of Dulbecco's Modified Eagle Medium (DMEM-Glutamax™-I), (Invitrogen Cat #10569-010) medium was supplemented with 5% Fetal Bovine Serum (Invitrogen Cat #10082-147), 1% penicillin/streptomycin (Mediatech Cat #30-002-CI). The pRluc H771b 75 S/I cells were plated in 96-well plate at 3000 cells/well in DMEM-Glutamax™-I containing 5% FBS and 1% penicillin/streptomycin in 90 μl final volume. Cells were allowed to equilibrate for 24 hours at 37° C. and 5% CO2 at which time compounds were added. Compounds (or medium as a control) were added 24 hours post-plating in 3 fold dilutions at a final DMSO concentration of 1% in 10 ul volume. Renilla luciferase reporter signal was read 72 hours after addition of compounds using the Renilla Luciferase Assay System (Promega, cat #E2820). EC50 values were defined as the compound concentration at which a 50% reduction in the levels of renilla luciferase reporter was observed as compared to control samples in the absence of compound and was determined by non-linear fitting of compound dose-response data. The EC50 was approximated if maximum percentage inhibition was less than 90% and more than 70%.
(Replicon systems follow genome replication, usually without infectious particles.)

The mark [3] stands for this setting: Huh-7, 2209-23 cells (GT-1b Con1), Renilla luciferase read 72 hours after addition of compounds, read-out: GT-1b (IC50).

Like-named read-outs stand apart in the source and are kept apart here.

A word on the IC50: it is the concentration that inhibits the measured activity by half.

For the compound `COC(=O)N[C@H]1CCc2cccc3c2N(C1=O)[C@H](c1ncc(-c2ccc(-c4ccc(-c5cnc([C@@H]6CCCN6C(=O)[C@@H](NC(=O)OC)C(C)C)[nH]5)cc4)c(F)c2)[nH]1)C3` [Compound I-35, {(2S,5S)-2-[5-(2-Fluoro-4′-{2-[(S)-1-((S)-2-methoxycarbonylamino-3-methyl-butyryl)-pyrrolidin-2-yl]-1H-imidazol-4-yl}-biphenyl-4-yl)-1H-imidazol-2-yl]-4-oxo-1,2,4,5,6,7-hexahydro-azepino[3,2,1-hi]indol-5-yl}-carbamic acid methyl ester], the IC50 came to 5.92 nM in assay [1] and 0.01 nM in assay [2] (setting [3]).
As to `COC(=O)N[C@H]1CCc2cccc3c2N(C1=O)[C@H](c1ncc(-c2ccc(-c4ccc(-c5cnc(C6CC7(CCOCC7)CN6C(=O)[C@@H](NC(=O)OC)C(C)C)[nH]5)cc4)cc2)[nH]1)C3` (stereo partly drawn) [Compound I-9, {(2S,5S)-2-[5-(4′-{2-[2-((S)-2-Methoxycarbonylamino-3-methyl-butyryl)-8-oxa-2-aza-spiro[4.5]dec-3-yl]-3H-imidazol-4-yl}-biphenyl-4-yl)-1H-imidazol-2-yl]-4-oxo-1,2,4,5,6,7-hexahydro-azepino[3,2,1-hi]indol-5-yl}-carbamic acid methyl ester], the half-maximal inhibitory concentration (IC50) turned out to be 3.36 nM in assay [1] and 0.03 nM in assay [2] (setting [3]).
Consider `COC(=O)N[C@@H](CCS(C)(=O)=O)C(=O)N1CCC[C@H]1c1ncc(-c2ccc(-c3ccc(-c4cnc([C@@H]5Cc6cccc7c6N5C(=O)[C@@H](NC(=O)OC)CC7)[nH]4)cc3)cc2)[nH]1` [Compound I-51, {(2S,5S)-2-[5-(4-{2-[(S)-1-((S)-4-Methanesulfonyl-2-methoxycarbonylamino-butyl)-pyrolidin-2-yl]-3H-imidazol-4-yl}-biphenyl-4-yl)-1H-imidazol-2-yl]-4-oxo-1,2,4,5,6,7-hexahydro-azepino[3,2,1-hi]indol-5-yl}-carbamic acid methyl ester], for which the IC50 stood at 16.6 nM in assay [1] and 0.03 nM in assay [2] (setting [3]).
For the compound `COC(=O)N[C@H]1CCc2cccc3c2N(C1=O)[C@H](c1nc2ccc(-c4ccc(-c5ccc6nc([C@@H]7CCCN7C(=O)[C@@H](NC(=O)OC)C(C)C)[nH]c6c5)cc4)cc2[nH]1)C3` [Compound I-5, {(2S,5S)-2-[6-(4-{2-[(S)-1-((S)-2-Methoxycarbonylamino-3-methyl-butyryl)-pyrrolidin-2-yl]-3H-benzoimidazol-5-yl}-phenyl)-1H-benzoimidazol-2-yl]-4-oxo-1,2,4,5,6,7-hexahydro-azepino[3,2,1-hi]indol-5-yl}-carbamic acid methyl ester], the IC50 is 49.8 nM in assay [1] and 0.093 nM in assay [2] (setting [3]).
`COC(=O)N[C@H]1CCc2cccc3c2N(C1=O)[C@H](c1nc2ccc(-c4ccc(-c5cnc([C@@H]6CCCN6C(=O)[C@@H](NC(=O)OC)C(C)C)[nH]5)cc4)cc2[nH]1)C3` [Compound I-10, {(2S,5S)-2-[6-(4-{2-[(S)-1-((S)-2-Methoxycarbonylamino-3-methyl-butyryl)-pyrrolidin-2-yl]-3H-imidazol-4-yl}-phenyl)-1H-benzoimidazol-2-yl]-4-oxo-1,2,4,5,6,7-hexahydro-azepino[3,2,1-hi]indol-5-yl}-carbamic acid methyl ester]: the IC50 in assay [1] is 43.3 nM; in assay [2] (setting [3]) it was 0.1 nM.
As for `COC(=O)N[C@H]1CCc2cccc3c2N(C1=O)[C@H](c1nc2ccc(-c4ccc5nc(-c6ccc7nc([C@@H]8CCCN8C(=O)[C@@H](NC(=O)OC)C(C)C)[nH]c7c6)cnc5c4)cc2[nH]1)C3` [Compound I-6], the IC50 in assay [1] was 17.5 nM; in assay [2] (setting [3]), 0.2 nM.
As for `COC(=O)N[C@H]1CCc2cccc3c2N(C1=O)[C@H](c1nc2ccc(-c4ccc(-c5ccc(-c6cnc([C@@H]7CCCN7C(=O)[C@@H](NC(=O)OC)C(C)C)[nH]6)cc5)cc4)cc2[nH]1)C3` [Compound I-11, {(2S,5S)-2-[6-(4′-{2-[(S)-1-((S)-2-Methoxycarbonylamino-3-methyl-butyryl)-pyrrolidin-2-yl]-3H-imidazol-4-yl}-biphenyl-4-yl)-1H-benzoimidazol-2-yl]-4-oxo-1,2,4,5,6,7-hexahydro-azepino[3,2,1-hi]indol-5-yl}-carbamic methyl ester], the results for the IC50 in assay [1] and in assay [2] (setting [3]) were 19.2 nM and 2.82 nM, respectively.
With `COC(=O)N[C@H]1CCc2cccc3c2N(C1=O)[C@H](c1ncc(-c2ccc4nc(-c5ccc(-c6cnc([C@@H]7CCCN7C(=O)[C@@H](NC(=O)OC)C(C)C)[nH]6)cc5)cnc4c2)[nH]1)C3` [Compound I-59, ((2S,5S)-2-{5-[2-(4-{2-[(S)-1-((S)-2-Methoxycarbonylamino-3-methyl-butyryl)-pyrrolidin-2-yl]-3H-imidazol-4-yl}-phenyl)-quinoxalin-6-yl]-1H-imidazol-2-yl}-4-oxo-1,2,4,5,6,7-hexahydro-azepino[3,2,1-hi]indol-5-yl)-carbamic acid methyl ester], the IC50 in assay [1] worked out at 0.709 nM; in assay [2] (setting [3]), 0.07 nM.
`COC(=O)N[C@H]1CCc2cccc3c2N(C1=O)[C@H](c1ncc(-c2cnc4cc(-c5ccc(-c6cnc([C@@H]7CC(F)(F)CN7C(=O)[C@@H](NC(=O)OC)C(C)C)[nH]6)cc5)ccc4c2)[nH]1)C3` [Compound I-19, ((2S,5S)-2-{5-[7-(4-{2-[(S)-1-((S)-2-Methoxycarbonylamino-3-methyl-butyryl)-4,4-difluoro-pyrrolidin-2-yl]-3H-imidazol-4-yl}-phenyl)-quinolin-3-yl]-1H-imidazol-2-yl}-4-oxo-1,2,4,5,6,7-hexahydro-azepino[3,2,1-hi]indol-5-yl)-carbamic acid methyl ester trifluroacetic acid]: the IC50 in assay [1] came out at 2.89 nM; in assay [2] (Huh-7, 72 h, read-out: GT-1b (IC50) (nM)), 0.16 nM.
Take `COC(=O)N[C@H]1CC(=O)c2cccc3c2N(C1=O)[C@H](c1ncc(-c2ccc(-c4ccc(-c5cnc([C@@H]6CCCN6C(=O)[C@@H](NC(=O)OC)C(C)C)[nH]5)cc4)cc2)[nH]1)C3` [Compound I-28, {(2S,5S)-2-[5-(4′-{2-[(S)-1-((S)-2-Methoxycarbonylamino-3-methyl-butyryl)-pyrrolidin-2-yl]-3H-imidazol-4-yl}-biphenyl-4-yl)-1H-imidazol-2-yl]-4,7-dioxo-1,2,4,5,6,7-hexahydro-azepino[3,2,1-hi]indol-5-yl}-carbamic acid methyl ester]: the IC50 in assay [1] stood at 1.81 nM; in assay [2] (setting [3]) it was 0.01 nM.
Consider `COC(=O)N[C@H]1CCc2cccc3c2N(C1=O)[C@H](c1ncc(-c2ccc(-c4cnc5cc(-c6cnc([C@@H]7CCCN7C(=O)[C@@H](NC(=O)OC)C(C)C)[nH]6)ccc5n4)cc2)[nH]1)C3` [Compound I-52, ((2S,5S)-2-{5-[4-(6-{2-[(S)-1-((S)-2-Methoxycarbonylamino-3-methyl-butyryl)-pyrrolidin-2-yl]-3H-imidazol-4-yl}-quinoxalin-2-yl)-phenyl]-1H-imidazol-2-yl}-4-oxo-1,2,4,5,6,7-hexahydro-azepino[3,2,1-hi]indol-5-yl)-carbamicacid methyl ester], for which the half-maximal inhibitory concentration (IC50) in assay [1] stood at 0.41 nM; in assay [2] (setting [3]), 0.03 nM.
On to `COC(=O)N[C@H]1CC(O)c2cccc3c2N(C1=O)[C@H](c1ncc(-c2ccc(-c4ccc(-c5cnc([C@@H]6CCCN6C(=O)[C@@H](NC(=O)OC)C(C)C)[nH]5)cc4)cc2)[nH]1)C3` (stereo partly drawn) [Compound I-29, {(2S,5S)-7-Hydroxy-2-[5-(4′-{2-[(S)-1-((S)-2-methoxycarbonylamino-3-methyl-butyryl)-pyrrolidin-2-yl]-3H-imidazol-4-yl}-biphenyl-4-yl)-1H-imidazol-2-yl]-4-oxo-1,2,4,5,6,7-hexahydro-azepino[3,2,1-hi]indol-5-yl}-carbamic acid methyl ester], for which the IC50 is 1.02 nM in assay [1] and 0.01 nM in assay [2] (setting [3]).

Values taken from patent US20120230951A1 (priority 2011, published 2012).
